Assay results published in article PMC4094919, “Screening and hit evaluation of a chemical library against blood-stage Plasmodium falciparum” (Malaria Journal, 2014).
“Also recorded” adds a separate entry of the source. Read-outs that look alike come from different tables or passages of the source. Marks after values point to notes of the source that are not given here.

Columns and labels:
[1] = tested on: P. falciparum NF54 strain; assay: P. falciparum NF54 growth assay, 3H-hypoxanthine incorporation (hit validation); type: cell-based, Plasmodium falciparum; details: for EC50: Plasmodium falciparum; for Comment (activity in words on retest): hit validation, NF54 confirmatory assay
Procedure: Synthesized compounds were tested in an alternative assay, in which ^3H-hypoxanthine incorporation was measured in the chloroquine-sensitive strain NF54 (Values were measured in duplicate, 12 points/EC50).
Cultivation of Plasmodium falciparum: Plasmodium falciparum strain NF54 was obtained from the Research and Reference Reagent Resource Center (MR4) (Manassas, VA, USA). The two strains were maintained in vitro by a modification of the method of Trager and Jensen. Cultures were maintained in A positive (A^+) human erythrocytes suspended at 5% hematocrit in complete medium. […] Parasite growth and morphology were observed daily using thin smears at 100X (oil immersion) magnification following staining with Giemsa stain.
Plasmodium falciparum growth assay: The protocol assesses the compound efficacy against the growth of P. falciparum in vitro.
All cultures used in the study are albumax II adopted. […]
Following the incubation period, the plates were harvested with a FilterMate cell harvester (Perkin Elmer) onto unifilter-96 GF/B plates, washed with distilled water to remove excess radiochemical and plates were kept for drying 37°C overnight or 60°C for 1 hr. Fifty µL of Microscint scintillation cocktail (Microscint-High Efficiency LSC-Cocktail; Perkin Elmer) added in the unifilter-96 GF/B plates and kept for 15-20 min. The plates were counted in a Top Count NXT microplate scintillation and luminescence counter (Perkin Elmer). The mean values for [^3H]-hypoxanthine incorporation in parasitized control and non-parasitized control erythrocytes were calculated.
Assay data were analysed using Graph pad prism ver.5 software. A variable sigmoid dose response curve is plotted keeping log concentrations at X-axis and % inhibition at Y-axis.

P. falciparum 3D7 strain = assay: P. falciparum 3D7 growth inhibition, DAPI imaging (HTS screen); type: cell-based
Procedure: The P. falciparum 3D7 strain was used for the primary screen.
For the screening of the chemical library, a validated high throughput screening (HTS) method was used as reported by Duffy and Avery. In brief, intra-erythrocyte P. falciparum 3D7 parasites incubated with the compounds for 72 hours were stained with 4′-6-diamidino-2-phenylindole (DAPI) and imaged using a high throughput confocal imaging system. To ascertain inhibition of parasite growth, images of fluorescent parasites were translated, using a mathematical algorithm, into a numerical output of classified spots (parasites) as determined by fluorescence size and intensity.
EC50 and CC50 values were calculated for compounds which presented an Emax plateau using GraphPad Prism.

[2] = P. falciparum NF54 strain, 3H-hypoxanthine incorporation, newly synthesized sample, read-out: EC50 (NF54)
[3] = negative logarithm of the molar EC50, NF54, read-out: pEC50 (NF54) (converted)
[4] = Plasmodium falciparum; P. falciparum 3D7 strain, DAPI imaging, HTS screen, library sample; read-out: EC50 (3D7)
[5] = Plasmodium falciparum; negative logarithm of the molar EC50, 3D7; read-out: pEC50 (3D7) (converted)
[6] = NF54, heading bounds of Figure 8: not reconfirming / reconfirming / newly synthesized compounds, read-out: EC50 (bound in Figure 8)
[7] = 3D7 / NF54, range over HTS (3D7) and retest after synthesis (NF54), read-out: EC50 range over the two assays

| Structure (SMILES) | EC50 [1, 2] [nM] | EC50 [1, 3] [nM] | EC50 (P. falciparum 3D7 strain; [4]) [nM] | EC50 (P. falciparum 3D7 strain; [5]) [nM] | EC50 [1, 6] [nM] | Comment (activity in words on retest) [1] | also measured |
| --- | --- | --- | --- | --- | --- | --- | --- |
| Cc1c(Cc2c(C)n(Cc3ccccc3C#N)c3ccccc23)c2ccccc2n1Cc1ccccc1C#N [Compound 2, 2,2'-((3,3'-methylenebis(2-methyl-1H-indole-3,1-diyl))bis(methylene))dibenzonitrile] | 763 | 794 |  |  |  | EC50 in the same range as initially described during the HTS |  |
| CC(C)(C)CC(=O)N(Cc1ccc(NC(=O)c2ccc(C#N)cc2)cc1)CC(C)(C)CN [Compound 3, N-(4-((N-(3-amino-2,2-dimethylpropyl)-3,3-dimethylbutanamido)methyl)phenyl)-4-cyanobenzamide] | 3000 | 3160 | 222 | 200 | > 1000 | Weakly active |  |
| CC(=O)N1c2ccccc2C(c2ccccc2)C1C(=O)O (centres unmarked) [Compound 4] |  |  | 172 | 158 | > 1000 |  |  |
| COc1ccc(NC(=O)c2cnn(-c3ccccc3)c2-c2ccccc2)c(OC)c1 [Compound 5, N-(2,4-dimethoxyphenyl)-1,5-diphenyl-1H-pyrazole-4-carboxamide] | 3900 | 3980 | 870 | 794 | > 1000 | Weakly active | EC50 ([1]; P. falciparum NF54, after synthesis, read-out: EC50 (NF54)): ~4000 nM |
| CC(=O)N1CCN(Cc2coc(Cc3ccccc3)n2)CC1 [Compound 6, 1-(4-((2-benzyloxazol-4-yl)methyl)piperazin-1-yl)ethanone] | > 10000 | > 10000 | < 10 | < 10 | > 1000 | Inactive |  |
| O=C(Nc1cc(=O)[nH]c2nc(-c3ccccc3)nn12)C1CCCCC1 [Compound 7, N-(5-oxo-2-phenyl-4,5-dihydro-[1,2,4]triazolo[1,5-a]pyrimidin-7-yl)cyclohexanecarboxamide] | 450 | 501 | 648 | 631 | < 1000 | Validated hit, CHEMBL587310^f) | EC50 [1, 7]: 450 to 648 nM |
| COc1ccc(-c2cnc3sc(NC4CCC(N)CC4)nn23)cn1 (centres unmarked) [Compound 8, N1-(5-(6-methoxypyridin-3-yl)imidazo[2,1-b][1,3,4]thiadiazol-2-yl)cyclohexane-1,4-diamine] |  |  |  |  |  |  | EC50 (P. falciparum 3D7 strain; Plasmodium falciparum, 3D7, read-out: EC50 (3D7)): 297 nM; EC50 (P. falciparum 3D7 strain; Plasmodium falciparum, 3D7, read-out: pEC50 (3D7) (converted)): 316 nM; EC50 ([1]; 3D7 / NF54, read-out: EC50 range over the two assays): 284 to 287 nM; EC50 ([1]; NF54, read-out: EC50 (NF54)): 284 nM; EC50 ([1]; NF54, read-out: EC50 (bound in Figure 8)): < 1000 nM; EC50 ([1]; NF54, read-out: pEC50 (NF54) (converted)): 316 nM |
| CCOc1ncccc1C(=O)Nc1cc(C(F)(F)F)ccc1Oc1cccc(OC)c1 [Compound 9, 2-ethoxy-N-(2-(3-methoxyphenoxy)-5-(trifluoromethyl)phenyl)nicotinamide] | 309 | 316 | 393 | 398 | < 1000 | Validated hit | EC50 [1, 7]: 309 to 393 nM |
| O=C(c1cccc(-c2noc(CN(CCN3CCCCC3)C(=O)c3ccccc3)n2)c1)N1CCCNCC1 [Compound 10, N-((3-(3-(1,4-diazepane-1-carbonyl)phenyl)-1,2,4-oxadiazol-5-yl)methyl)-N-(2-(piperidin-1-yl)ethyl)benzamide] | 60 | 63.1 | 181 | 200 | < 1000 | Validated hit | EC50 [1, 7]: 60 to 181 nM |
| O=C(NCC(c1ccsc1)N1CCCCCC1)c1ccc(C(F)(F)F)cc1 (centres unmarked) [Compound 11, N-(2-(azepan-1-yl)-2-(thiophen-3-yl)ethyl)-4-(trifluoromethyl)benzamide] | 518 | 501 | 433 | 398 | < 1000 | Validated hit |  |
| COc1ccc2c(c1)C1(Nc3ccccc3-c3nc4ccccc4n31)C(=O)N2 (centres unmarked) [Compound 12, 5'-methoxy-5H-spiro[benzo[4,5]imidazo[1,2-c]quinazoline-6,3'-indolin]-2'-one] | 60 | 63.1 | 928 | 1000 | < 1000 | Validated hit, CHEMBL1545915^f) |  |
| Cc1csc(Sc2ncnc3sccc23)n1 [Compound 13, 4-((4-methylthiazol-2-yl)thio)thieno[2,3-d]pyrimidine] | 102 | 100 | 194 | 200 | < 1000 | Validated hit | EC50 [1, 7]: 102 to 194 nM |
| O=C(O)C1Cc2c([nH]c3ccccc23)C(c2ccc(Cl)cc2Cl)N1 (centres unmarked) [Compound 14] |  |  | 350 | 316 |  |  |  |
| Cc1ccc(S(=O)(=O)N2CC(C)N(Cc3ccc(C(=O)NC4CC4)cc3)CC2C)cc1 (centres unmarked) [Compound 15, N-cyclopropyl-4-((2,5-dimethyl-4-tosylpiperazin-1-yl)methyl)benzamide] |  |  | 678 |  |  |  |  |
| CC(C)=CCN1CCC2(CC1)CN(C(=O)Nc1cccc(C#N)c1)c1ccc(C)cc12 [Compound 16] |  |  |  |  |  |  | EC50 (P. falciparum 3D7 strain; Plasmodium falciparum, 3D7; read-out: EC50 (3D7)): 990 nM; EC50 (P. falciparum 3D7 strain; Plasmodium falciparum, 3D7; read-out: Potency at HTS (3D7)): < 1000 nM; EC50 (P. falciparum 3D7 strain; Plasmodium falciparum, 3D7; read-out: pEC50 (3D7) (converted)): 1000 nM |
| O=C(Nc1cccc(Cl)c1)N1CC2(CCN(Cc3ccccc3)CC2)c2ccccc21 [Compound 17, 1'-benzyl-N-(3-chlorophenyl)spiro[indoline-3,4'-piperidine]-1-carboxamide] | 309 | 316 |  |  | < 1000 | Hit |  |

Continued, in another order:

| EC50 [1, 2] [nM] | EC50 [1, 3] [nM] | EC50 (P. falciparum 3D7 strain; [4]) [nM] | EC50 (P. falciparum 3D7 strain; [5]) [nM] | EC50 [1, 6] [nM] | Structure (SMILES) | Comment (activity in words on retest) [1] | also measured |
| --- | --- | --- | --- | --- | --- | --- | --- |
| > 10000 | > 10000 |  |  |  | CC(=O)N1c2ccccc2[C@@H](c2ccccc2)[C@@H]1C(=O)O (racemic) [Compound 4a, Rac (2R,3R)-1-acetyl-3-phenylindoline-2-carboxylic acid] | did not confirm activity; also recorded: Inactive |  |
| > 10000 | > 10000 |  |  | < 1000 | O=C(O)[C@@H]1Cc2c([nH]c3ccccc23)[C@H](c2ccc(Cl)cc2Cl)N1 [Compound 14a, (1S,3S)-1-(2,4-dichlorophenyl)-2,3,4,9-tetrahydro-1H-pyrido[3,4-b]indole-3-carboxylic acid] | Inactive |  |
| 167 | 158 |  |  | < 1000 | O=C(O)[C@@H]1Cc2c([nH]c3ccccc23)[C@@H](c2ccc(Cl)cc2Cl)N1 [Compound 14b, (1R,3S)-1-(2,4-dichlorophenyl)-2,3,4,9-tetrahydro-1H-pyrido[3,4-b]indole-3-carboxylic acid] | Hit |  |
| 4200 | 3980 |  |  | < 1000 | O=C(O)[C@H]1Cc2c([nH]c3ccccc23)[C@@H](c2ccc(Cl)cc2Cl)N1 [Compound 14c] | weak activity; also recorded: Weakly active |  |
| > 10000 | > 10000 |  |  | < 1000 | O=C(O)[C@H]1Cc2c([nH]c3ccccc23)[C@H](c2ccc(Cl)cc2Cl)N1 [Compound 14d] | Inactive |  |
| 44 | 39.8 |  |  | < 1000 | Cc1ccc(S(=O)(=O)N2C[C@H](C)N(Cc3ccc(C(=O)NC4CC4)cc3)C[C@@H]2C)cc1 [Compound 15a] | Hit | Difference in activity between the two enantiomers ([1]; 15a versus 15b, NF54 EC50): more than 15 fold |
| 679 | 631 |  |  | < 1000 | Cc1ccc(S(=O)(=O)N2C[C@@H](C)N(Cc3ccc(C(=O)NC4CC4)cc3)C[C@H]2C)cc1 [Compound 15b] | Hit |  |
| 535 | 501 |  |  | < 1000 | Cc1ccc(S(=O)(=O)N2CCN(Cc3ccc(C(=O)NC4CC4)cc3)CC2)cc1 [Compound 15c, N-cyclopropyl-4-((4-tosylpiperazin-1-yl)methyl)benzamide] | Hit |  |
